This is an account of results in patent publication US11702404B2, “GLP-1R modulating compounds” (priority 2019, dated 2023).

SMILES strings stand for the structures. Like-named read-outs stand apart in the source and are kept apart here.

The target in one data set is GLP-1R (Homo sapiens, UniProt P43220). Description: GLP-1R activation: cAMP increase in CHO cells stably expressing GLP-1R. The data set is classed as cell-based.
A short description of data set [1]: Microsomal stability, human liver microsomes (predicted hepatic clearance). The note with it: predicted from in vitro microsomal stability data.
Setting [2] is: cAMP increase, CHO cells stably expressing GLP-1R, 10 point dose response, 30 minutes incubation, read-out: EC50.

Chain of GLP-1R (P43220 24-463): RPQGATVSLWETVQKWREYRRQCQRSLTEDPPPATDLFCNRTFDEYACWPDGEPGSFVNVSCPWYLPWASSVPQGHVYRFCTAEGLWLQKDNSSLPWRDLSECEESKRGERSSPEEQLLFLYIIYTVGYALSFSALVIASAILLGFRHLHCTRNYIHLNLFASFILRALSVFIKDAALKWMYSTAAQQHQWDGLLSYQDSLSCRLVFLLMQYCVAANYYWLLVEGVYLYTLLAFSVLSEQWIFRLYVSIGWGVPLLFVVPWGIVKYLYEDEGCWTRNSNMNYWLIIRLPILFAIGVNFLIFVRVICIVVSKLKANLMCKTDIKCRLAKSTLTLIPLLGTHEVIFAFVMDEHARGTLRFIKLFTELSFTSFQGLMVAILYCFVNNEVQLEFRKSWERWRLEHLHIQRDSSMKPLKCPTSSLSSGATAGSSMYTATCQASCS

On to `COC(CNC(C)=O)Cn1c(Cc2ccc(-c3cccc(OCc4ccc(C#N)cc4F)n3)cc2F)nc2ccc(C(=O)O)cc21` (single isomer, unassigned) [Example 342, 1-(3-acetamido-2-methoxypropyl)-2-(4-(6-((4-cyano-2-fluorobenzyl)oxy)pyridin-2-yl)-2-fluorobenzyl)-1H-benzo[d]imidazole-6-carboxylic acid], for which the EC50 at GLP-1R (setting [2]) was 3360 nM. Besides, the “Predicted Hepatic Clearance (Pred. Cl.)” value in data set [1] is 4 mL/min/kg.
For `COCCn1c(C(C)c2ccc(-c3cccc(OCc4ccc(C#N)cc4F)n3)cc2)nc2ccc(C(=O)O)cc21` (single isomer, unassigned) [Example 418, 2-(1-(4-(6-((4-cyano-2-fluorobenzyl)oxy)pyridin-2-yl)phenyl)ethyl)-1-(2-methoxyethyl)-1H-benzo[d]imidazole-6-carboxylic acid], at GLP-1R (setting [2]), the concentration giving a half-maximal response (EC50) was 18.3 nM. Also, in data set [1], the “Predicted Hepatic Clearance (Pred. Cl.)” value was 4.83 mL/min/kg.
In the case of `CC(=O)N1CC[C@@H]1Cn1c(Cc2cc(F)c(-c3cccc(OCc4ccc(C#N)cc4F)n3)cc2F)nc2ccc(C(=O)O)cc21` (single isomer, unassigned) [Example 689], at GLP-1R (read-out: EC50), the EC50 was 0.56 nM. The “Predicted Hepatic Clearance (Pred. Cl.)” value in data set [1] was 5.17 mL/min/kg.
For `N#Cc1ccc(COc2cccc(-c3cc(F)c(Cc4nc5ccc(C(=O)O)cc5n4C[C@@H]4CCO4)cc3F)n2)c(F)c1` (single isomer, unassigned) [Example 757], on GLP-1R (setting [2]), the EC50 worked out at 0.03 nM. Moreover, the “Predicted Hepatic Clearance (Pred. Cl.)” value in data set [1] is 4.33 mL/min/kg.
Turning to `CO[C@H]1COC[C@H]1n1c(Cc2cc(F)c(-c3cccc(OCc4ccc(C#N)cc4F)n3)cc2F)nc2ccc(C(=O)O)cc21` (single isomer, unassigned) [Example 890, 2-(4-(6-((4-cyano-2-fluorobenzyl)oxy)pyridin-2-yl)-2,5-difluorobenzyl)-1-(cis-4-methoxytetrahydrofuran-3-yl)-1H-benzo[d]imidazole-6-carboxylic acid], the EC50 at GLP-1R (setting [2]) was 0.49 nM. Further, the “Predicted Hepatic Clearance (Pred. Cl.)” value in data set [1] was 5.17 mL/min/kg.
Consider `CO[C@H]1COC[C@H]1n1c(Cc2cc(F)c(-c3cccc(OCc4ccc(C#N)cc4F)n3)cc2F)nc2ccc(C(=O)O)cc21` (single isomer, unassigned) [Example 891, 2-(4-(6-((4-cyano-2-fluorobenzyl)oxy)pyridin-2-yl)-2,5-difluorobenzyl)-1-(cis-4-methoxytetrahydrofuran-3-yl)-1H-benzo[d]imidazole-6-carboxylic acid], for which, at GLP-1R (setting [2]), the EC50 came out at 0.25 nM. The “Predicted Hepatic Clearance (Pred. Cl.)” value in data set [1] is 6.67 mL/min/kg.
On the same counts, the results for `CC1(C)CC(Cn2c(Cc3ccc(-c4cccc(OCc5ccc(C#N)cc5F)n4)cc3F)nc3ccc(C(=O)O)cc32)O1` (single isomer, unassigned) [Example 904, 2-(4-(6-((4-cyano-2-fluorobenzyl)oxy)pyridin-2-yl)-2-fluorobenzyl)-1-((4,4-dimethyloxetan-2-yl)methyl)-1H-benzo[d]imidazole-6-carboxylic acid] are 311 nM and 11.2 mL/min/kg.
Taken in the same sequence, the figures for `CC1(C)CC(Cn2c(Cc3ccc(-c4cccc(OCc5ccc(C#N)cc5F)n4)cc3F)nc3ccc(C(=O)O)cc32)O1` (single isomer, unassigned) [Example 905, 2-(4-(6-((4-cyano-2-fluorobenzyl)oxy)pyridin-2-yl)-2-fluorobenzyl)-1-((4,4-dimethyloxetan-2-yl)methyl)-1H-benzo[d]imidazole-6-carboxylic acid] were 30.9 nM and 4.33 mL/min/kg.
With `COCCn1c(Cc2ccc(-c3cccc(OCc4ccc(C#N)cc4F)n3)cc2)nc2ccc(C(=O)O)cc21` [Example 1, 2-(4-(6-((4-Cyano-2-fluorobenzyl)oxy)pyridin-2-yl)benzyl)-1-(2-methoxyethyl)-1H-benzo[d]imidazole-6-carboxylic acid], the EC50 on GLP-1R (setting [2]) was found to be 25.4 nM. Besides, the “Predicted Hepatic Clearance (Pred. Cl.)” value in data set [1] was 3.3 mL/min/kg.
On the same counts, the results for `COCCn1c(Cc2ccc(-c3cccc(OCc4ccc(C#N)cc4F)n3)cc2F)nc2ccc(C(=O)O)cc21` [Example 2, 2-(4-(6-((4-cyano-2-fluorobenzyl)oxy)pyridin-2-yl)-2-fluorobenzyl)-1-(2-methoxyethyl)-1H-benzo[d]imidazole-6-carboxylic acid] are 2.3 nM and 2.33 mL/min/kg.
As for `COCCn1c(Cc2ccc(-c3cccc(OCc4ccc(C#N)cc4F)n3)c(F)c2)nc2ccc(C(=O)O)cc21` [Example 3, 2-(4-(6-((4-cyano-2-fluorobenzyl)oxy)pyridin-2-yl)-3-fluorobenzyl)-1-(2-methoxyethyl)-1H-benzo[d]imidazole-6-carboxylic acid], the EC50 on GLP-1R (EC50 (nM)) turned out to be 10.3 nM. Further, the “Predicted Hepatic Clearance (Pred. Cl.)” value in data set [1] is 3.83 mL/min/kg.
As to `COCCn1c(Cc2ccc(-c3cccc(OCc4ccc(C#N)cc4F)n3)s2)nc2ccc(C(=O)O)cc21` [Example 4, 2-((5-(6-((4-cyano-2-fluorobenzyl)oxy)pyridin-2-yl)thiophen-2-yl)methyl)-1-(2-methoxyethyl)-1H-benzo[d]imidazole-6-carboxylic acid], the EC50 on GLP-1R (setting [2]) was determined as 1570 nM. Besides, the “Predicted Hepatic Clearance (Pred. Cl.)” value in data set [1] is 13.7 mL/min/kg.
Regarding `COCCn1c(Cc2ccc(-c3cccc(OCc4ccc(C#N)cc4F)c3)cc2F)nc2ccc(C(=O)O)cc21` [Example 6, 2-((3′-((4-cyano-2-fluorobenzyl)oxy)-3-fluoro-[1,1′-biphenyl]-4-yl)methyl)-1-(2-methoxyethyl)-1H-benzo[d]imidazole-6-carboxylic acid], the EC50 at GLP-1R (setting [2]) is 56.1 nM. Besides, in data set [1], the “Predicted Hepatic Clearance (Pred. Cl.)” value was 3.5 mL/min/kg.
For `N#Cc1ccc(COc2cccc(-c3ccc(Cc4nc5ccc(C(=O)O)cc5n4Cc4cncn4C4CC4)c(F)c3)n2)c(F)c1` [Example 7, 2-(4-(6-((4-cyano-2-fluorobenzyl)oxy)pyridin-2-yl)-2-fluorobenzyl)-1-((1-cyclopropyl-1H-imidazol-5-yl)methyl)-1H-benzo[d]imidazole-6-carboxylic acid], the EC50 at GLP-1R (setting [2]) was found to be 6.34 nM. For the same compound, the “Predicted Hepatic Clearance (Pred. Cl.)” value in data set [1] was 5.17 mL/min/kg.
With `N#Cc1ccc(COc2cccc(-c3ccc(Cc4nc5ccc(C(=O)O)cc5n4Cc4cncn4C4CC4)c(F)c3)c2)c(F)c1` [Example 8, 2-((3′-((4-cyano-2-fluorobenzyl)oxy)-3-fluoro-[1,1′-biphenyl]-4-yl)methyl)-1-((1-cyclopropyl-1H-imidazol-5-yl)methyl)-1H-benzo[d]imidazole-6-carboxylic acid], the EC50 at GLP-1R (setting [2]) amounted to 26.4 nM. Besides, the “Predicted Hepatic Clearance (Pred. Cl.)” value in data set [1] was 4.33 mL/min/kg.
On the same counts, the results for `CC1(Cn2c(Cc3ccc(-c4cccc(OCc5ccc(C#N)cc5F)n4)cc3F)nc3ccc(C(=O)O)cc32)CC1` [Example 9, 2-(4-(6-((4-cyano-2-fluorobenzyl)oxy)pyridin-2-yl)-2-fluorobenzyl)-1-((1-methylcyclopropyl)methyl)-1H-benzo[d]imidazole-6-carboxylic acid] are 1.75 nM and less than 1.83 mL/min/kg.
With `N#Cc1ccc(COc2cccc(-c3ccc(Cc4nc5ccc(C(=O)O)cc5n4CC4(CF)CC4)c(F)c3)n2)c(F)c1` [Example 10, 2-(4-(6-((4-cyano-2-fluorobenzyl)oxy)pyridin-2-yl)-2-fluorobenzyl)-1-((1-(fluoromethyl)cyclopropyl)methyl)-1H-benzo[d]imidazole-6-carboxylic acid], the EC50 at GLP-1R (setting [2]) is 0.57 nM. Further, the “Predicted Hepatic Clearance (Pred. Cl.)” value in data set [1] was 2.83 mL/min/kg.
Taken in the same sequence, the figures for `N#Cc1ccc(COc2cccc(-c3ccc(Cc4nc5ccc(C(=O)O)cc5n4CC4(C#N)CC4)c(F)c3)n2)c(F)c1` [Example 13, 2-(4-(6-((4-cyano-2-fluorobenzyl)oxy)pyridin-2-yl)-2-fluorobenzyl)-1-((1-cyanocyclopropyl)methyl)-1H-benzo[d]imidazole-6-carboxylic acid] were 2.7 nM and 4.17 mL/min/kg.
On the same counts, the results for `CC(C)(C#N)Cn1c(Cc2ccc(-c3cccc(OCc4ccc(C#N)cc4F)n3)cc2F)nc2ccc(C(=O)O)cc21` [Example 14, 2-(4-(6-((4-cyano-2-fluorobenzyl)oxy)pyridin-2-yl)-2-fluorobenzyl)-1-(2-cyano-2-methylpropyl)-1H-benzo[d]imidazole-6-carboxylic acid] are 3.14 nM and 5 mL/min/kg.
Taken in the same sequence, the figures for `N#CCC1(Cn2c(Cc3ccc(-c4cccc(OCc5ccc(C#N)cc5F)n4)cc3F)nc3ccc(C(=O)O)cc32)CC1` [Example 16, 2-(4-(6-((4-cyano-2-fluorobenzyl)oxy)pyridin-2-yl)-2-fluorobenzyl)-1-((1-(cyanomethyl)cyclopropyl)methyl)-1H-benzo[d]imidazole-6-carboxylic acid] were 0.55 nM and 5.5 mL/min/kg.
For the compound `N#Cc1ccc(COc2cccc(-c3ccc(Cc4nc5ccc(C(=O)O)cc5n4CC4CCS4(=O)=O)c(F)c3)n2)c(F)c1` (stereo not shown) [Example 17, 2-(4-(6-((4-cyano-2-fluorobenzyl)oxy)pyridin-2-yl)-2-fluorobenzyl)-1-((1,1-dioxidothietan-2-yl)methyl)-1H-benzo[d]imidazole-6-carboxylic acid], the EC50 on GLP-1R (setting [2]) worked out at 11 nM. For the same compound, the “Predicted Hepatic Clearance (Pred. Cl.)” value in data set [1] is 2.67 mL/min/kg.
On the same counts, the results for `CC1(Cn2c(Cc3ccc(-c4cccc(OCc5ccc(C#N)cc5F)n4)cc3F)nc3ccc(C(=O)O)nc32)CC1` [Example 18, 2-(4-(6-((4-cyano-2-fluorobenzyl)oxy)pyridin-2-yl)-2-fluorobenzyl)-3-((1-methylcyclopropyl)methyl)-3H-imidazo[4,5-b]pyridine-5-carboxylic acid] are 3.6 nM and 2.5 mL/min/kg.
Turning to `COCCn1c(Cc2ccc(-c3cccc(OCc4ccc(C#N)cc4F)n3)c(C)c2)nc2ccc(C(=O)O)cc21` [Example 20, 2-{[4-[6-[(4-cyano-2-fluoro-phenyl)methoxy]-2-pyridyl]-3-methyl-phenyl]methyl}-3-(2-methoxyethyl)benzimidazole-5-carboxylic acid], a half-maximal response at GLP-1R (EC50 (nM)) (EC50) required 24.1 nM. The “Predicted Hepatic Clearance (Pred. Cl.)” value in data set [1] is 2.33 mL/min/kg.
